Measured values from ChEMBL document CHEMBL1143987, “Structure and estrogenic activity of new lignans from Iryanthera lancifolia” (2008).
The source made the active and inactive calls. No cut-off for these calls is given here.

Assays:
Type in all cases: functional
MCF7 [1] = experiment: Estrogenic potency in human MCF7 BUS cells assessed as drug level inducing maximal cell proliferation
MCF7 [2] = experiment: Proliferative potency in human MCF7 BUS cells assessed as induction of maximal cell proliferation relative to 17-beta estradiol
MCF7 [3] = experiment: Proliferative effect in human MCF7 BUS cells assessed as increase in cell number relative to 17-beta estradiol; set-up: concentration or dose not given beside the values
MCF7 [4] = experiment: Proliferative effect in human MCF7 BUS cells assessed as ratio of increase in cell number in drug treated to control

| Structure (SMILES) | MED (MCF7 [1]) | Activity (MCF7 [2]) | Activity (MCF7 [3]) | Ratio (MCF7 [4]) | Activity (MCF7 [4]) |
| --- | --- | --- | --- | --- | --- |
| Oc1ccc2c(c1)O[C@H](c1ccc3c(c1)OCO3)CC2 | 10 µM | 0.01% | 67.1% | 5.7 | – |
| COc1ccc(CCC(=O)c2c(O)cc(O)cc2OC)cc1 | 10 µM | 0.01% | 80.7% | 6.6 | – |
| COc1cc(O)cc(O)c1C(=O)CCc1ccc2c(c1)OCO2 | 10 µM | 0.01% | 22.1% | 2.5 | – |
| C[C@@H]1[C@@H](c2ccc(O)cc2)c2cc(O)ccc2C[C@H]1C | 10 µM | 0.01% | 77.8% | 6.4 | – |
| COc1ccc([C@H]2Oc3c(OC)cc(C=O)cc3[C@@H]2C)cc1O [PERSEAL F] | – | 0% | 0% | – | inactive |
| COc1cc(C[C@H](C)[C@H](C)Cc2ccc3c(c2)OCO3)ccc1O [AUSTROBAILIGNAN 6] | – | 0% | 0% | – | inactive |
| CCO[C@@H](c1ccc2c(c1)OCO2)[C@@H](C)[C@H](C)Cc1ccc2c(c1)OCO2 | 10 µM | 0.01% | 84% | 6.9 | – |
| C[C@]12CC[C@@H]3c4ccc(O)cc4CC[C@H]3[C@@H]1CC[C@@H]2O [ESTRADIOL] | 0.001 µM | – | – | 8 | – |
| C/C=C/c1cc(OC)c2c(c1)[C@@H](C)[C@H](c1ccc(O)c(OC)c1)O2 [LICARINE A] | 10 µM | 0.01% | 26.4% | 2.8 | – |
| C[C@H](Cc1ccc2c(c1)OCO2)[C@H](C)C(=O)c1ccc(O)cc1 | 10 µM | 0.01% | 50.1% | 4.51 | – |
| C[C@@H]([C@H](C)Cc1ccc2c(c1)OCO2)[C@@H](O)c1ccc2c(c1)OCO2 [OLEIFERIN C] | 10 µM | 0.01% | 47.8% | 4.4 | – |
| C/C(=C/c1ccc(O)cc1)C(C)Cc1ccc(O)cc1 (stereo unspecified) | 10 µM | 0.01% | 73.7% | 6.2 | – |
| C[C@@H]([C@H](C)Cc1ccc2c(c1)OCO2)[C@H](O)c1ccc2c(c1)OCO2 | – | 0% | 0% | – | inactive |
| C[C@H](Cc1ccc2c(c1)OCO2)[C@@H](C)Cc1ccc2c(c1)OCO2 [MACHILIN A] | 10 µM | 0.01% | 13.5% | 1.9 | – |
| C[C@@H]1[C@@H](c2ccc3c(c2)OCO3)c2cc3c(cc2C[C@H]1C)OCO3 [CAGAYANINE] | 10 µM | 0.01% | 17.9% | 2.2 | – |
| COc1cc(C(=O)[C@@H](C)[C@H](C)Cc2ccc3c(c2)OCO3)ccc1O [OLEIFERIN D] | 10 µM | 0.01% | 42.8% | 4 | – |
| C[C@H](Cc1ccc(O)cc1)[C@H](C)Cc1ccc2c(c1)OCO2 | 10 µM | 0.01% | 68.7% | 5.8 | – |
| C/C=C/c1cc(OC)c2c(c1)[C@@H](C)[C@H](c1ccc3c(c1)OCO3)O2 [LICARINE B] | – | 0% | 0% | – | inactive |
